Results published in BigSolDB 2.1.

Brc1sc(Br)c(Br)c1Br
solubility (mole fraction)
Details	in THF	in ethanol
278.15 K	0.0397	0.00126
282.15 K	0.043	0.00134
286.15 K	0.0463	0.00151
290.15 K	0.05	0.00181
294.15 K	0.0539	0.00206
298.15 K	0.0581	0.00241
302.15 K	0.0627	0.00268
306.15 K	0.0671	0.00305
310.15 K	0.0719	0.00353
314.15 K	0.0766	0.00389
318.15 K	0.082	0.00442
322.15 K	0.0869	0.00501
